Values joined by “and” are separate entries in the source; they are usually repeats but may differ in a detail not shown here. Identical values can stand only once.
Tests used:
Rat Bbc3 (PUMA) = experiment: mRNA in situ hybridization of host tissues; assay type: in vivo; conditions: i.v. 20 mg/kg
Method: In situ hybridization was performed using the QuantiGene ViewRNA FFPE Assay kit (Affymetrix/Panomics) following the manufacturer's protocol. Gene-specific probe sets for rat Ubc (Ubiquitin C) and Bbc3 (PUMA) mRNAs were custom-designed and synthesized by Affymetrix. Bbc3 probes were used in type 1/Fast Red and Ubc probes were used in type 6/Fast Blue. Slides were processed strictly following the QuantiGene protocol. […] Briefly, five micrometer sections were cut, fixed in 10% formaldehyde, deparaffinized and rehydrated. In order to increase accessibility to mRNAs, slides were then boiled in pre-treatment solution (Affymetrix) and digested with protease QF (Affymetrix) at optimal conditions. Sections were then hybridized for 3 h at 40° C. with custom-designed QuantiGene ViewRNA probes against Bbc3 and the control gene Ubc. A no-probe sample was utilized as a negative control per the Affymetrix manual's recommendations. […] LP-AP type 6 probe detection of signal was done with Fast Blue substrate (blue dots, Cy5 fluorescence) for 30 mn at RT in the dark, followed by LP-AP type 1 probe detection of signal with Fast Red Substrate (red dots, Cy3 fluorescence) for 30 mn at 40° C. […]

Cleaved Caspase-3 = experiment: Caspase-3 activation in SJSA-1 tumor (immunohistochemistry); assay type: in vivo, nude rat; conditions: higher single dose; 24 h post-treatment
Method: All tissues were processed to FFPE according to routine procedures and following fixation, rat sternum was decalcified in Citrate/EDTA buffer for 5 days, with buffer exchange every 24 h. Sections were cut at 3 μm using a microtome. p21 and cleaved Caspase-3 immunohistochemistry was performed on a Ventana Discovery XT automated immunostainer using the OmniMap anti Mouse or Rabbit HRP secondary reagent and the ChromoMap DAB chromogen system (Ventana/Roche Diagnostics GmbH, Mannheim, Germany). Antigen retrieval was done by using Cell Conditioning Discovery CC1 (Ventana/Roche Diagnostics) at mild (95° 8 min+100° 20 min, for cleaved Caspase-3) or standard (95° 8 min+100° 36 min, for p21) conditions. The primary antibody was applied manually at the desired dilution in Dako antibody diluent, followed by incubation for 1 hour at room temperature. Corresponding negative controls were incubated with AbD only. Counterstaining of sections was done using hematoxylin (Ventana/Roche Diagnostics). After the automated staining run, slides were dehydrated in a graded series of ethanol, cleared in xylene and mounted with Pertex mounting medium.

[1] = test system: p21, Mdm2 and cleaved Caspase-3 in jejunum and bone marrow (sternum); experiment: Immunohistochemistry of host tissues after i.v. treatment; assay type: in vivo, rat; conditions: i.v. 20 mg/kg
Method: Sections were cut at 3 μm using a microtome. p21 and cleaved Caspase-3 immunohistochemistry was performed on a Ventana Discovery XT automated immunostainer using the OmniMap anti Mouse or Rabbit HRP secondary reagent and the ChromoMap DAB chromogen system (Ventana/Roche Diagnostics GmbH, Mannheim, Germany). […] The primary antibody was applied manually at the desired dilution in Dako antibody diluent, followed by incubation for 1 hour at room temperature. Corresponding negative controls were incubated with AbD only. Counterstaining of sections was done using hematoxylin (Ventana/Roche Diagnostics). After the automated staining run, slides were dehydrated in a graded series of ethanol, cleared in xylene and mounted with Pertex mounting medium.

SJSA-1 tumor = experiment: Efficacy on SJSA-1 tumor-bearing nude rat (tumor volume); assay type: in vivo; conditions: for tumor regression in average: one week post treatment
[2] = i.v. q3w 13.7 mg/kg, week 1 post treatment
[3] = i.v. q3w 13.7 mg/kg, week 2 post treatment
[4] = i.v. q3w 18.2 mg/kg, week 1 post treatment
[5] = i.v. q3w 18.2 mg/kg, week 2 post treatment
[6] = i.v. q3w 18.2 mg/kg, week 3 post treatment
[7] = i.v. q3w 18.2 mg/kg, week 5 post treatment
[8] = i.v. q3w 20 mg/kg, three weeks post first treatment

`COc1ncc(-c2nc3c(n2C(C)C)[C@H](c2ccc(Cl)cc2)N(c2cc(Cl)cn(C)c2=O)C3=O)c(OC)n1` [Compound A, (S)-5-(5-Chloro-1-methyl-2-oxo-1,2-dihydro-pyridin-3-yl)-6-(4-chloro-phenyl)-2-(2,4-dimethoxy-pyrimidin-5-yl)-1-isopropyl-5,6-dihydro-1H-pyrrolo[3,4-d]imidazol-4-one] was tested. Which “time of maximum increase in Puma (Bbc3) mRNA” value (Rat Bbc3 (PUMA); jejunum section, post last treatment) did it give?
The value was 3 h.

And the “time of return of Puma mRNA to baseline” value (Rat Bbc3 (PUMA); post treatment)?
Its value is 7 days.

What about the “caspase-3 activation in tumor” value (Cleaved Caspase-3) of the same compound?
Its value is “strong caspase-3 activation”.

What about the “time of maximum increase in p21, Mdm2 and cleaved Caspase-3” value ([1]; jejunum and bone marrow (sternum)) of the same compound?
Its value is 3 h.

And the “time of return of all staining to baseline” value ([1]; post treatment)?
The value was 7 days.

What about the tumor cell density (SJSA-1 tumor; higher single dose, 48 and 72 h post-treatment) of the same compound?
Its tumor cell density is “dramatic decrease”.

What about the tumor growth (SJSA-1 tumor; i.v. 13.7 mg/kg, after two weeks) of the same compound?
Its tumor growth is “re-growing”.

And the “tumor regression in average” value (SJSA-1 tumor; i.v. 13.7 mg/kg)?
The value was 66%.

What about the “tumor regression in average” value (SJSA-1 tumor; i.v. 18.2 mg/kg) of the same compound?
Its value is 88%.

What about the tumor regression (SJSA-1 tumor; i.v. 18.2 mg/kg, three weeks post treatment) of the same compound?
Its tumor regression is 36%.

What about the CR (SJSA-1 tumor; [2]) of the same compound?
Its CR is 1/6.

What about the “ΔTvol (%)” value (SJSA-1 tumor; [2]) of the same compound?
Its value is −66 ± 9%.

And the CR (SJSA-1 tumor; [3])?
Its CR is 0/6.

What about the “ΔTvol (%)” value (SJSA-1 tumor; [3]) of the same compound?
The value was 4 ± 37%.

And the CR (SJSA-1 tumor; [4])?
The CR was 0/5.

What about the “ΔTvol (%)” value (SJSA-1 tumor; [4]) of the same compound?
The value was −80 ± 2%.

What about the CR (SJSA-1 tumor; [5]) of the same compound?
The CR was 2/5.

And the “ΔTvol (%)” value (SJSA-1 tumor; [5])?
The value was −79 ± 11%.

What about the CR (SJSA-1 tumor; [6]) of the same compound?
The CR was 2 and 2/5.

And the “ΔTvol (%)” value (SJSA-1 tumor; [6])?
The value was −36 ± 37%.

What about the CR (SJSA-1 tumor; [7]) of the same compound?
The CR was 2/5.

What about the “ΔTvol (%)” value (SJSA-1 tumor; [7]) of the same compound?
Its value is 22 ± 63%.

And the CR (SJSA-1 tumor; i.v. q3w 18.2 mg/kg, week 6 post treatment)?
The CR was 2/5.

And the “ΔTvol (%)” value (SJSA-1 tumor; i.v. q3w 18.2 mg/kg, week 6 post treatment (after the second treatment))?
Its value is 118% and 118 ± 104%.

What about the “rats with complete response (100% regression)” value (SJSA-1 tumor; [8]) of the same compound?
Its value is 3.

What about the “rats with progressive disease” value (SJSA-1 tumor; [8]) of the same compound?
The value was 1.

And the “rats with stable disease” value (SJSA-1 tumor; [8])?
The value was 1.

And the “effect of combining two dosing schedules” value (SJSA-1 tumor; intermittent (15 mg/kg once) plus daily dosing (1.5 mg/kg))?
Its value is “highly synergistic effect”.

And the tumor regression (SJSA-1 tumor; p.o. q3w 20 mg/kg, three weeks post first treatment)?
The tumor regression was 27%.

What about the SJSA-1 tumor regression (SJSA-1 tumor; p.o. q3w 27 mg/kg, after one cycle (three weeks post first treatment)) of the same compound?
The SJSA-1 tumor regression was 88%.

What about the “response of regrown tumors to retreatment” value (SJSA-1 tumor; retreated i.v. at 15 mg/kg) of the same compound?
The value was “still sensitive”.

And the “tumors with incomplete response and regrowth” value (SJSA-1 tumor; single i.v. 20 mg/kg)?
The value was 2 of 11.

What about the tumor regression (SJSA-1 tumor; single i.v. 20 mg/kg, 14 days post treatment) of the same compound?
Its tumor regression is 92%.

What about the “complete SJSA-1 tumor response (100% regression), share of treated rat” value (SJSA-1 tumor; single i.v. 20 mg/kg, for 42 days) of the same compound?
Its value is 82%.

— patent US11419870B2, “Intermittent dosing of MDM2 inhibitor” (Novartis AG, priority 2014, dated 2022)
